Measurements taken from ChEMBL document CHEMBL1145714, “Activity of Parthenolide at 5HT2A receptors” (J Nat Prod, 1997).

Legend:
[1] = Displacement of [3H]ketanserin from 5HT2A receptor in rabbit cerebral cortex membrane; type: cell membranes, Oryctolagus cuniculus
[2] = target: T1, 5-hydroxytryptamine receptor 2A (Rattus norvegicus, UniProt P14842); assay: Displacement of [3H]ketanserin from rat 5HT2A receptor expressed in mouse NIH3T3 cells; type: cell-based
[3] = target: T1, 5-hydroxytryptamine receptor 2A; assay: Displacement of [3H]ketanserin from 5HT2A receptor in rat brain membrane; type: cell membranes

T1 sequence (P14842 whole entry): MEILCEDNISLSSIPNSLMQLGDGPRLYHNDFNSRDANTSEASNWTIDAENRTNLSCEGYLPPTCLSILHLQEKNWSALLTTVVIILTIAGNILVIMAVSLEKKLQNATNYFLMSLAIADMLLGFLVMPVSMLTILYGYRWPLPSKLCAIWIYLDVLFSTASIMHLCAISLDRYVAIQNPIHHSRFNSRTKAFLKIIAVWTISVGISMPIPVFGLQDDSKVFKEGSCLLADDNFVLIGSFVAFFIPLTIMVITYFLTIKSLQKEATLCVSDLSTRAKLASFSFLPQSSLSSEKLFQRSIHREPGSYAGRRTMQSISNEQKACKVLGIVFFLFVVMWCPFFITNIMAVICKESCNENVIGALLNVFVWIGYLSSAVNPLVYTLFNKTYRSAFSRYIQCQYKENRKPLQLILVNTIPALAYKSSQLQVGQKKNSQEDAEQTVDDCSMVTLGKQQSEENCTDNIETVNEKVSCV

Row | Ki [2] | Ki [3] | SMILES | Ki [1]
1 | 100 µM | 250 µM | C=C1C(=O)O[C@@H]2C3O[C@]3(C)CC/C=C(\C)CC[C@@H]12 (some centres undefined) | 230 µM
2 | – | – | CN1C[C@@H](NS(=O)(=O)N(C)C)C[C@@H]2c3cccc4c3c(cn4C)C[C@H]21 [MESULERGINE] | 0.0083 µM
